The text below walks through data of patent US11963941B2, “Use of a fasting mimicking diet to enhance the efficacy of antiestrogens in cancer” (UNIVERSITA' DEGLI STUDI DI GENOVA, priority 2016, dated 2024).

Structures are written as SMILES. Entries after “also recorded” stand apart in the source; their conditions may differ.

The subject of data set [1] is MCF7 cells. The data set can be described thus: Short-term viability assay (72 h, sulforhodamine B) with chemotherapeutics. To be noted: FIG. 7. Format: cell-based. On the procedure:
In the experiment of FIG. 7, 5×10^3 MCF7 cells/well were plated in 96-well plates in regular DMEM medium containing 10% FBS. 24 h later, the cell medium was removed and cells were incubated for 24 h either in the same medium or in low-glucose (0.5 g/L) DMEM medium containing 1% FBS (fasting mimicking conditions). 24 h later, 10 μM tamoxifen (Tam) was added to the culture medium where indicated. 24 h later, cells were stimulated with doxorubicin or Taxotere at the indicated concentrations. Viability was determined 72 h later in sulforhodamine B assays.

The conditions of data set [2]: literature refs [5], [6]; cited from earlier work.
The subject of data set [3] is MCF7 cells. As to the kind of experiment: Cell viability in control vs fasting mimicking (FMD) medium. Format: cell-based. To be noted: FMD = low-glucose (0.5 g/L) DMEM, 1% FBS, vs regular medium, FIG. 1A, 1D. The procedure: In particular, in the experiments of FIGS. 1A-D, 3×10^3 MCF7 (A, D), ZR-75-1 (B) or T47D (C) cells were plated in 96 well plates in regular DMEM medium containing 10% FBS. 24 h later, the cell medium was removed and cells were incubated for 24 h either in the same medium (CTR) or in low-glucose (0.5 g/L) DMEM medium containing 1% FBS (FMD). 24 h later, tamoxifen (Tam) or fulvestrant (Fulv) at the indicated concentrations were added to the culture medium.

For data set [4], the system named is T47D cells. As to the kind of experiment: Cell cycle analysis (G1 arrest). It is filed as cell-based. The following applies: 10 μM tamoxifen, 24 h, FIG. 2C. The procedure: (§1) In particular, in the experiments of FIGS. 2A-D, 5×10^5 MCF7, ZR-75-1 or T47D cells were plated in 6-well plates in regular DMEM medium containing 10% FBS. 24 h later, the cell medium was removed and cells were incubated for 24 h either in the same medium (CTR) or in fasting mimicking conditions or a fasting mimicking diet (FMD). 24 h later, 10 μM tamoxifen (Tam) was added to the culture medium where indicated. 24 h later, cells were used for cell cycle analysis or for mRNA extraction and subsequent determination of E2F1, E2F4 and CCNE1 expression by QPCR.

The test system of data set [5] is MCF7 cells. The data set can be described thus: Cell cycle analysis (G1 arrest). It is filed as cell-based. The following applies: 10 μM tamoxifen, 24 h, FIG. 2A. The procedure: as §1
Data set [6] has as its system T47D cells.
Data set [7] relates to T47D cells. The data set can be described thus: Gene expression by QPCR. It is filed as cell-based.
Data set [8] concerns T47D cells. As to the kind of experiment: Cell viability in control vs fasting mimicking (FMD) medium. Format: cell-based. To be noted: FMD = low-glucose (0.5 g/L) DMEM, 1% FBS, vs regular medium, FIG. 1C.
In the next data set the test system is MCF7 xenografts. As to the kind of experiment: MCF7 xenograft tumor growth.
Data set [9] concerns MCF7 cells. The data set can be described thus: Global gene expression microarrays. It is filed as cell-based.
The subject of data set [10] is MCF7 cells. The data set can be described thus: Gene expression by QPCR. It is filed as cell-based. The procedure:
as §1
In the experiment of FIG. 4, MCF7, ZR-75-1 or T47D cells were treated as in the experiment of FIG. 2. 24 h after tamoxifen (5 μM) addition, cells were used for protein lysate generation or for mRNA extraction, ER and β-actin were detected by immunoblotting. TTF1 expression was determined by QPCR.
In the experiment of FIG. 6, MCF7, ZR-75-1 or T47D cells were treated as in the experiment of FIG. 2. 24 h after tamoxifen (5 μM) addition, cells were used for RNA extraction or for protein lysate generation. In FIG. 6A, RAD51 expression was detected by QPCR. In FIG. 6B, RAD51 and (β-actin were detected by immunoblotting.

Data set [11] is classed as in vivo. The following applies: fasting (water only, 48 h) + tamoxifen 30 mg/kg/die; FIG. 8C.
The subject of data set [12] is MCF7 cells. It is filed as cell-based. The following applies: FMD + tamoxifen 5 μM, 24 h.
Setting [13] is: FMD + tamoxifen 5 μM, 24 h, FIG. 3.
[14] abbreviates: FMD + tamoxifen 5 μM, 24 h, FIG. 4B.
The mark [15] stands for this setting: FMD + tamoxifen 5 μM, 24 h, FIG. 6A.
Setting [16] is: FMD + tamoxifen 10 μM vs single treatments, FIG. 2D.
[17] abbreviates: MCF7 treated with tamoxifen and FMD, 4 biological replicates/condition.

Turning to `CC(=O)O[C@@]12CO[C@@H]1C[C@H](O)[C@@]1(C)C(=O)[C@H](O)C3=C(C)[C@@H](OC(=O)[C@H](O)[C@@H](NC(=O)OC(C)(C)C)c4ccccc4)C[C@@](O)([C@@H](OC(=O)c4ccccc4)[C@H]21)C3(C)C` [Taxotere, docetaxel], the “cell viability, triple treatment tamoxifen + Taxotere + FMD” value with MCF7 cells [1] (taxotere 100 nM) is reported as “most pronounced reduction in cell viability”.
As for `COc1cccc2c1C(=O)c1c(O)c3c(c(O)c1C2=O)C[C@@](O)(C(=O)CO)C[C@@H]3O[C@H]1C[C@H](N)[C@H](O)[C@H](C)O1` [doxorubicin], in the data set on MCF7 cells [1] (doxorubicin 100 nM), the “cell viability, triple treatment tamoxifen + doxorubicin + FMD” value is recorded as “most pronounced reduction in cell viability”.
`CO[C@H]1C[C@@H]2CC[C@@H](C)[C@@](O)(O2)C(=O)C(=O)N2CCCC[C@H]2C(=O)O[C@H]([C@H](C)C[C@@H]2CC[C@@H](OCCO)[C@H](OC)C2)CC(=O)[C@H](C)/C=C(\C)[C@@H](O)[C@@H](OC)C(=O)[C@H](C)C[C@H](C)/C=C/C=C/C=C/1C` [everolimus]: in data set [2], the significant side effects result was “stomatitis, anemia and hyperglycemia”.
As to `C[C@]12CC[C@@H]3c4ccc(O)cc4C[C@@H](CCCCCCCCC[S+]([O-])CCCC(F)(F)C(F)(F)F)[C@H]3[C@@H]1CC[C@@H]2O` (some centres unmarked) [fulvestrant], the “cell viability: potentiation of drug activity by FMD conditions” value in the data set on MCF7 cells [3] is given as “marked increase”. Moreover, the “induction of a G1 cell cycle arrest, drug + FMD” value in the data set with T47D cells [4] and in the data set with MCF7 cells [5] was “increased the ability” throughout.
Regarding `CC/C(=C(\c1ccccc1)c1ccc(OCCN(C)C)cc1)c1ccccc1` [tamoxifen], the 4E-BP1 phosphorylation state result with T47D cells [6] (setting [13]) and with MCF7 cells [12] (FIG. 3) was “marked accumulation of the unphosphorylated form” each time. The “mTOR activity (levels of phosphorylated p70S6K and eIF4E)” value with T47D cells [6] (setting [13]) and in the data set on MCF7 cells [12] (FIG. 3) was “marked inhibition of mTOR activity” each time. The “RAD51 expression at the protein level” value with T47D cells [6] (FMD + tamoxifen 5 μM, 24 h, FIG. 6B) is “strong RAD51 downregulation”; in the data set on MCF7 cells [12] (FIG. 6B) it was “strong RAD51 downregulation”. Further, the HER2 expression result in the data set with T47D cells [6] (FMD in combination with tamoxifen 5 μM, FIG. 3) was “marked reduction in HER2 expression”. In addition, the “TTF1 expression (ERα-mediated transcription)” value in the data set with T47D cells [7] (setting [14]) and with MCF7 cells [10] (setting [14]) was “increase the ability of tamoxifen to reduce TTF1 expression” in each case. Further, the “RAD51 expression at the mRNA level” value in the data set with T47D cells [7] (setting [15]) and with MCF7 cells [10] (setting [15]) was “strong RAD51 downregulation” in each case. Also, the “downregulation of cell cycle promoting genes (E2F1, E2F2 and CCNE1)” value in the data set with T47D cells [7] (setting [16]) is given as “more pronounced; also recorded: only occurred in response to a combined treatment”; in the data set on MCF7 cells [10] (setting [16]), “more pronounced”. In addition, the “cell viability: potentiation of drug activity by FMD conditions” value in the data set on T47D cells [8] and in the data set on MCF7 cells [3] was “strong potentiation” in each case. For the same molecule, in the data set with MCF7 xenografts (normal diet, tamoxifen 30 mg/kg/die oral gavage, FIG. 8A), the “growth of MCF7 xenografts (tumor volume), drug alone” value is “reduced the growth”. Also, the “growth of MCF7 xenografts (tumor volume), drug + fasting” value with MCF7 xenografts (tamoxifen 30 mg/kg/die oral gavage + fasting (water only, 48 h, once a week), p<0.05) is recorded as “significantly more effective than either type of treatment alone”. For the same molecule, the “gene ontology/pathway analysis of differentially expressed genes” value with MCF7 cells [9] (MCF7, FMD added to tamoxifen vs FMD alone or tamoxifen alone, FIG. 5) is recorded as “marked changes in pathways related to DNA repair”. For the same molecule, the “BRCA1 Log2 fold change” value in the data set with MCF7 cells [9] (setting [17]) is listed as −1.372. Further, the “EXO1 Log2 fold change” value with MCF7 cells [9] (setting [17]) is given as −1.583. The “PCNA Log2 fold change” value in the data set on MCF7 cells [9] (setting [17]) is −1.658. Further, in the data set on MCF7 cells [9] (setting [17]), the “RAD51 Log2 fold change” value is −1.864. Also, in the data set with MCF7 cells [9] (setting [17]), the “TIPIN Log2 fold change” value was −1.604. Further, the “mouse body weight loss, addition of drug to fasting” value in [11] is reported as “failed to worsen weight losses”. For the same molecule, the “induction of a G1 cell cycle arrest, drug + FMD” value was “increased the ability; also recorded: only occurred in response to a combined treatment” in the data set on T47D cells [4] and “increased the ability” in the data set on MCF7 cells [5].
